Consider two molecules from patent US7398119B2, “Assessing blood brain barrier dynamics or identifying or measuring selected substances, including ethanol or toxins, in a subject by analyzing Raman spectrum signals” (Childrens Hospital Los Angeles, priority 1998, dated 2008).

The conditions of data set [1]: blood alcohol and brain alcohol levels; cited from earlier work.
A short description of data set [2]: Correlation of aqueous humor glucose with rising blood glucose after ketamine/xylazine anesthesia. Format: in vivo, New Zealand white rabbits. To be noted: xylazine 7.5 mg/kg with ketamine 50 mg/kg, single intramuscular injection. Here is the method:
Nine female New Zealand white rabbits were used for this part of the study. They were anesthetized with ketamine (50 mg/kg) and xylazine (7.5 mg/kg) given as a single intramuscular injection. Xylazine blocks release of insulin from the pancreas and causes blood glucose to rise (K. Chalabi et al., Ophthalmic Res. 19, 289 (1987); J. Arnbjerg et al., Ophthalmic Res. 22, 265 (1990)).
Blood samples were taken from the central ear arteries at various times following the injection of anesthetic once the animals were adequately anesthetized. Whole blood was immediately measured for glucose concentration with a commercial glucometer (Glucometer Elite, Bayer). In most instances two measurements were made. The average measurements are reported. If the measurements differed by more than 20%, a third measurement was made. […]
At various times after induction of anesthesia, samples of aqueous humor were taken. […] Aqueous humor glucose concentration was measured with the glucometer in a manner similar to the blood. […]
Average blood glucose concentrations for each animal were plotted against time after anesthetic injection. Since it was not possible to obtain blood samples simultaneous with aqueous humor samples, a best-fit second-order polynomial was calculated for each animal. […] Aqueous humor glucose concentration was then plotted against the calculated simultaneous blood glucose concentration for all animals. […]

The structures appear in SMILES notation.

With `CCO` [alcohol, ethanol], the “concentrations that may be lethal” value in data set [1] is reported as “above 1%”.

Turning to `Cc1cccc(C)c1N=C1NCCCS1` [xylazine], the “effect on blood glucose over time” value in data set [2] was “steadily rises at variable rates”.
